pIC50: −log10 of the molar value. Read-outs that look alike come from different tables or passages of the source.
Tests used:
[1] = target: glucocorticoid receptor (GR) (Homo sapiens, UniProt P04150)
Description: A non-labeled steroid (dexamethasone) was serially diluted in 10 mM potassium phosphate pH 7.4,20 mM Na2MoO4, 2% DMSO, 0.1 mM EDTA, 0.5 mM DTT buffer containing 0.1 mM stabilizing peptide. This steroid was used as a competitive binder to glucocorticoid receptor (GR). […] Control wells were also prepared without either unconjugated fluorescein or TMR present. As in Examples 1 and 2, two separate fluorescence polarization values were obtained for each sample using a green filter or a red filter.

[2] = target: T1, T-Cell Protein Tyrosine Phosphatase (TC PTP) (Homo sapiens, UniProt P17706); experiment: FP-based protein tyrosine phosphatase assay (dual color); type: biochemical
T1 construct: purchased New England Biolabs
T1 sequence (P17706 1-317 limits assumed): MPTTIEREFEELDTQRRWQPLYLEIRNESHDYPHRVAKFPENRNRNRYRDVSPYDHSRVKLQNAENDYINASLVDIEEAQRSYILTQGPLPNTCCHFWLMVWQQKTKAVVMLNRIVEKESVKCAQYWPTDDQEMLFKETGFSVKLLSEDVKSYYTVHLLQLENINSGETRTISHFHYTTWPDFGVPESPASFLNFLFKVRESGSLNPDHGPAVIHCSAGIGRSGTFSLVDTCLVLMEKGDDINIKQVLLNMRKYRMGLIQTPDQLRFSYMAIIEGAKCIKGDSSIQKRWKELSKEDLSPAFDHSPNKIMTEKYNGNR
Description: The enzymatic activity of T-Cell Protein Tyrosine Phosphatase (TC PTP) was measured in a dose-dependent manner by incubating different concentrations of TC PTP (New England Biolabs; Beverly, Mass.), from 0.05 U/μL to 0.0005 U/μL, with 50 μL of a mixture of an anti-phosphotyrosine antibody, a fluorescein-labeled phosphopeptide and a tetramethylrhodamine-labeled phosphopeptides. The final reaction volume was […]. Two control assays were performed. […] Fluorescence polarization measurements were performed using the appropriate excitation and emission filters appropriate for each fluorophore. Increasing concentrations of TC PTP result in an increased rate of dephosphorylation of the labeled phosphopeptides, which is indicated by a decrease in polarization (due to the inability of the dephosphorylated peptide to bind to the antibody).
In a black, 96-well plate (DYNEX; Chantilly, Va.), Na3VO4 (Sigma; St. Louis, Mo.) was serially diluted 2-fold into 24 wells from a starting concentration of 500 nM in a volume of 50 μL. TC PTP was then added to each well so that the final concentration of the enzyme would be 0.005 U/μL per assay. […] At the end of the incubation, 10 μL of 550 μM Na3VO4 was added to quench all of the reactions, and the polarization for each sample was measured on a TECAN Polarion using the appropriate excitation and emission filters appropriate for each fluorophore. […]

glucocorticoid receptor (GR), sequence (P04150 whole entry, species assumed): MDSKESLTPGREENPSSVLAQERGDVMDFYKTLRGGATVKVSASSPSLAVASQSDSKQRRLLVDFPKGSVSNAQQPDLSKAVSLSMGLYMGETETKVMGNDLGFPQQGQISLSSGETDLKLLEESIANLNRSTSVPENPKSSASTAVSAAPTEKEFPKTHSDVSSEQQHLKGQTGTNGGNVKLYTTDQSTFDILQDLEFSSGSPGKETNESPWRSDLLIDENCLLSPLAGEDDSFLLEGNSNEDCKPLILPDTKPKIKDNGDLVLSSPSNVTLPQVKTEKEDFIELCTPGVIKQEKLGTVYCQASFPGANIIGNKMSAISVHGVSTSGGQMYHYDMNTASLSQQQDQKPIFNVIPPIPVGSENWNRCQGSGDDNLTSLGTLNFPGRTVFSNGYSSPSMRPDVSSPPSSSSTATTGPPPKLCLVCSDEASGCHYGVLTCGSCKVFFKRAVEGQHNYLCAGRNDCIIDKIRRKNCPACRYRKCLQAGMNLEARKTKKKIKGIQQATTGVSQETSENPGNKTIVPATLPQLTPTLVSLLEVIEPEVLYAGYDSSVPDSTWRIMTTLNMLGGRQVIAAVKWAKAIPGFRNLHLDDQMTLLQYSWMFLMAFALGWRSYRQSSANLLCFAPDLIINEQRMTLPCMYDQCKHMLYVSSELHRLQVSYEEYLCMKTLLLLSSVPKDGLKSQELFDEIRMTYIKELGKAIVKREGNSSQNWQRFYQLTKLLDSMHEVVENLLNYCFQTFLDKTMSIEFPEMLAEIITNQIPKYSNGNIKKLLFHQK

Molecule | fluorescence polarization ([1]; high concentrations of steroid competitor) | fluorescence polarization ([1]; low concentration of competitor) | inhibition of TC PTP-dependent change in polarization ([2]; 50 μM Na3VO4) | pIC50 ([2]; TC PTP 0.005 U/μL, 15 minutes incubation, nonlinear regression of semi-log plot)
dexamethasone [steroid competitor] | about 60 mP | ~260 mP | – | –
[Na+].[Na+].[Na+].[O]=[V]([O-])([O-])[O-] [Na3VO4] | – | – | completely inhibited | 8.40

Reference: patent publication US20030224469A1, “Methods and kits for assays utilizing fluorescence polarization” (priority 2002, published 2003)
